# Measured values: patent US8440710B2, “HSL inhibitors useful in the treatment of diabetes” (Hoffmann-La Roche Inc., priority 2009, dated 2013)
# Biological target: T1, human HSL (Homo sapiens, UniProt Q05469)
# T1 construct: generate a full length human HSL ORF with a 3′-His6 tag; made in house; host or cells: High 5 insect cells (baculovirus, pFast-BAC)
# T1 sequence (Q05469 1-1076): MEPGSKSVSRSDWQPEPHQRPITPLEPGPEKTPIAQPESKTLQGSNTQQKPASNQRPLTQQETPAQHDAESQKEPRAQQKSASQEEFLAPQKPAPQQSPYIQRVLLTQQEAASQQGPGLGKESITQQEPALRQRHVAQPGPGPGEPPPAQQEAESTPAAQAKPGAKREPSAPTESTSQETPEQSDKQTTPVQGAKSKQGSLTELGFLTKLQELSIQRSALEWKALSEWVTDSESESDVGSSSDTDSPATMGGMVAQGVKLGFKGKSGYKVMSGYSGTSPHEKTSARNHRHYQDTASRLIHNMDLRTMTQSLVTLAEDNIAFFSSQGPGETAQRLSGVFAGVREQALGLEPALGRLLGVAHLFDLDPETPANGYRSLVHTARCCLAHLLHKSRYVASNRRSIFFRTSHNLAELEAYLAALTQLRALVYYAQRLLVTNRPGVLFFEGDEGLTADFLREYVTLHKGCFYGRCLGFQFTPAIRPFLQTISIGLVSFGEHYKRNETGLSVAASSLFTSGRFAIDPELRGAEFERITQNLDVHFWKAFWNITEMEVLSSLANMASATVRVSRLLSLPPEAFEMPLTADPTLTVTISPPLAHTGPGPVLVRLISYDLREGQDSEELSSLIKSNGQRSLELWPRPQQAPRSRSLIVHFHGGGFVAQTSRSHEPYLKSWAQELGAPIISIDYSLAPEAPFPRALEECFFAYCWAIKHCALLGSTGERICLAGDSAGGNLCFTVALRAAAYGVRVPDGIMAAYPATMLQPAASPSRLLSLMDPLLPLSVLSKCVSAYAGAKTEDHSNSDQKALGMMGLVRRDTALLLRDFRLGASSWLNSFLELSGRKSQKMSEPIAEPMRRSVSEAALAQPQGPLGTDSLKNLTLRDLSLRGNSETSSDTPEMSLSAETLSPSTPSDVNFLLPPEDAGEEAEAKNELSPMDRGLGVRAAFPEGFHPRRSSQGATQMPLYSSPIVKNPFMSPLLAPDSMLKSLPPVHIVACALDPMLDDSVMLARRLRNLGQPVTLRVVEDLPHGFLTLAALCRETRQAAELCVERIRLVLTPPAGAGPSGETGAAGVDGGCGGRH
# Experiment: Human Hormone-Sensitive Lipase (HSL) enzyme inhibition assay (colorimetric, DMPT substrate)
# Type: biochemical
# Conditions: human full length HSL-His6, 2,3-dimercapto-1-propanol tributyrate substrate, 37° C. 20 minutes, absorbance at 405 nm; read-out: HSL hum IC50
# Procedure, shortened: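 Full-length human HSL with C-terminal His6, expressed in baculovirus-infected High 5 cells and Ni-NTA purified, was added (15 ug/ml stock) to 1.5 mM DMPT in 100 mM MOPS pH 7.2, 0.2 mg/ml fatty acid-free BSA containing compound. After 20 min at 37 °C, DTNB with SDS/Triton X-100 was added; A405 read after 15 min at RT.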
row,IC50,SMILES
1,10 nM,"CCCOC[C@]1(O)CC[C@]2(CCN(c3ccc(O[C@H](C)C(F)(F)F)cc3)C2=O)CC1 [Example 270, (5α,8α)-8-Hydroxy-8-propoxymethyl-2-[4-((R)-2,2,2-trifluoro-1-methyl-ethoxy)-phenyl]-2-aza-spiro[4.5]decan-1-one]"
2,30 nM,"CCOC[C@]1(O)CC[C@]2(CCN(c3ccc(C4CC4)cc3)C2=O)CC1 [Example 271, (5α,8α)-2-(4-Cyclopropyl-phenyl)-8-ethoxymethyl-8-hydroxy-2-aza-spiro[4.5]decan-1-one]"
3,20 nM,"CCCOC[C@]1(O)CC[C@]2(CCN(c3ccc(C4CC4)cc3)C2=O)CC1 [Example 272, (5α,8α)-2-(4-Cyclopropyl-phenyl)-8-hydroxy-8-propoxymethyl-2-aza-spiro[4.5]decan-1-one]"
4,20 nM,"O=C1N(c2ccc(OCC(F)(F)F)cc2)CC[C@]12CC[C@@](O)(COCC1CCCC1)CC2 [Example 273, (5α,8α)-8-[(Cyclopentylmethoxy)methyl]-8-hydroxy-2-[4-(2,2,2-trifluoro-ethoxy)-phenyl]-2-aza-spiro[4.5]decan-1-one]"
5,20 nM,"CC(C)(C)COC[C@]1(O)CC[C@]2(CCN(c3ccc(OCC(F)(F)F)cc3)C2=O)CC1 [Example 274, (5α,8α)-8-(2,2-Dimethyl-propoxymethyl)-8-hydroxy-2-[4-(2,2,2-trifluoro-ethoxy)-phenyl]-2-aza-spiro[4.5]decan-1-one]"
6,80 nM,"CCS(=O)(=O)C[C@]1(O)CC[C@]2(CCN(c3ccc(OCC(F)(F)F)cc3)C2=O)CC1 [Example 275, (5α,8α)-8-Ethanesulfonylmethyl-8-hydroxy-2-[4-(2,2,2-trifluoro-ethoxy)-phenyl]-2-aza-spiro[4.5]decan-1-one]"
7,10 nM,"CC(C)OC[C@]1(O)CC[C@]2(CCN(c3ccc(OCC(F)(F)F)cc3)C2=O)CC1 [Example 276, (5α,8α)-8-Hydroxy-8-isopropoxymethyl-2-[4-(2,2,2-trifluoro-ethoxy)-phenyl]-2-aza-spiro[4.5]decan-1-one]"
8,40 nM,"O=C1N(c2ccc(OCC(F)(F)F)cc2)CC[C@]12CC[C@@](O)(COCCC(F)(F)F)CC2 [Example 277, (5α,8α)-8-Hydroxy-2-[4-(2,2,2-trifluoro-ethoxy)-phenyl]-8-(3,3,3-trifluoro-propoxymethyl)-2-aza-spiro[4.5]decan-1-one]"
9,20 nM,"O=C1N(c2ccc(OCC(F)(F)F)cc2)CC[C@]12CC[C@](O)(COc1ccccn1)CC2 [Example 278, (5α,8β)-8-Hydroxy-8-(pyridin-2-yloxymethyl)-2-[4-(2,2,2-trifluoro-ethoxy)-phenyl]-2-aza-spiro[4.5]decan-1-one]"
10,20 nM,"O=C1N(c2ccc(OCC(F)(F)F)nc2)CC[C@]12CC[C@@](O)(COCC(F)(F)F)CC2 [Example 279, (5α,8α)-8-Hydroxy-8-(2,2,2-trifluoro-ethoxymethyl)-2-[6-(2,2,2-trifluoro-ethoxy)-pyridin-3-yl]-2-aza-spiro[4.5]decan-1-one]"
11,980 nM,"C[C@H](Oc1ccc(N2CC[C@]3(CC[C@](O)(COCC(F)(F)F)CC3)C2=O)cn1)C(F)(F)F [Example 280, (5α,8β)-8-Hydroxy-8-(2,2,2-trifluoro-ethoxymethyl)-2-[6-((S)-2,2,2-trifluoro-1-methyl-ethoxy)-pyridin-3-yl]-2-aza-spiro[4.5]decan-1-one]"
12,10 nM,"C[C@H](Oc1ccc(N2CC[C@]3(CC[C@@](O)(COCC(F)(F)F)CC3)C2=O)cn1)C(F)(F)F [Example 281, (5α,8α)-8-Hydroxy-8-(2,2,2-trifluoro-ethoxymethyl)-2-[6-((S)-2,2,2-trifluoro-1-methyl-ethoxy)-pyridin-3-yl]-2-aza-spiro[4.5]decan-1-one]"
13,400 nM,"C[C@H](Oc1ccc(N2CC[C@]3(CC[C@](O)(COCC(F)(F)F)CC3)C2=O)cc1)C(F)(F)F [Example 282, (5α,8β)-8-Hydroxy-8-(2,2,2-trifluoro-ethoxymethyl)-2-[4-((S)-2,2,2-trifluoro-1-methyl-ethoxy)-phenyl]-2-aza-spiro[4.5]decan-1-one]"

# More lines, now with the values behind:
row,SMILES,IC50
1,"O=C1N(c2ccc(OCC(F)(F)F)cc2)CC[C@]12CC[C@](O)(COCC1CC1)CC2 [Example 256, (5α,8β)-8-[(Cyclopropylmethoxy)methyl]-8-hydroxy-2-[4-(2,2,2-trifluoro-ethoxy)-phenyl]-2-aza-spiro[4.5]decan-1-one]",690 nM
2,"O=C1N(c2ccc(OCC(F)(F)F)cc2)CC[C@]12CC[C@@](O)(COCC1CC1)CC2 [Example 257, (5α,8α)-8-[(Cyclopropylmethoxy)methyl]-8-hydroxy-2-[4-(2,2,2-trifluoro-ethoxy)-phenyl]-2-aza-spiro[4.5]decan-1-one]",10 nM
3,"COC[C@]1(O)CC[C@]2(CCN(c3ccc(OCC(F)(F)F)cc3)C2=O)CC1 [Example 258, (5α,8α)-8-Hydroxy-8-methoxymethyl-2-[4-(2,2,2-trifluoro-ethoxy)-phenyl]-2-aza-spiro[4.5]decan-1-one]",70 nM
4,"O=C1N(c2ccc(OCC(F)(F)F)cc2)CC[C@]12CC[C@@](O)(COCC1CCO1)CC2 (stereo partly drawn) [Example 259, (5α,8α)-8-Hydroxy-8-(oxetan-2-ylmethoxymethyl)-2-[4-(2,2,2-trifluoro-ethoxy)-phenyl]-2-aza-spiro[4.5]decan-1-one]",80 nM
5,"CC1(COC[C@]2(O)CC[C@]3(CCN(c4ccc(OCC(F)(F)F)cc4)C3=O)CC2)COC1 [Example 260, (5α,8α)-8-Hydroxy-8-(3-methyl-oxetan-3-ylmethoxymethyl)-2-[4-(2,2,2-trifluoro-ethoxy)-phenyl]-2-aza-spiro[4.5]decan-1-one]",60 nM
6,"CCSC[C@]1(O)CC[C@]2(CCN(c3ccc(OCC(F)(F)F)cc3)C2=O)CC1 [Example 261, (5α,8α)-8-Ethylsulfanylmethyl-8-hydroxy-2-[4-(2,2,2-trifluoro-ethoxy)-phenyl]-2-aza-spiro[4.5]decan-1-one]",10 nM
7,"O=C1N(c2ccc(OCC(F)(F)F)cc2)CC[C@]12CC[C@@](O)(COc1cccc(F)c1)CC2 [Example 262, (5α,8α)-8-(3-Fluoro-phenoxymethyl)-8-hydroxy-2-[4-(2,2,2-trifluoro-ethoxy)-phenyl]-2-aza-spiro[4.5]decan-1-one]",70 nM
8,"O=C1N(c2ccc(OCC(F)(F)F)cc2)CC[C@]12CC[C@@](O)(COc1ccc(F)cc1)CC2 [Example 263, (5α,8α)-8-(4-Fluoro-phenoxymethyl)-8-hydroxy-2-[4-(2,2,2-trifluoro-ethoxy)-phenyl]-2-aza-spiro[4.5]decan-1-one]",20 nM
9,"CCc1ccc(N2CC[C@]3(CC[C@](O)(COCC(F)F)CC3)C2=O)cc1 [Example 264, (5α,8β)-8-(2,2-Difluoro-ethoxymethyl)-2-(4-ethyl-phenyl)-8-hydroxy-2-aza-spiro[4.5]decan-1-one]",200 nM
10,"CCc1ccc(N2CC[C@]3(CC[C@@](O)(COCC(F)F)CC3)C2=O)cc1 [Example 265, (5α,8α)-8-(2,2-Difluoro-ethoxymethyl)-2-(4-ethyl-phenyl)-8-hydroxy-2-aza-spiro[4.5]decan-1-one]",40 nM
11,"CCCOC[C@]1(O)CC[C@@]2(CCN(c3ccc(OCC(F)(F)F)nc3)C2=O)CC1 [Example 266, (5α,8β)-8-Hydroxy-8-propoxymethyl-2-[6-(2,2,2-trifluoro-ethoxy)-pyridin-3-yl]-2-aza-spiro[4.5]decan-1-one]",370 nM
12,"CCCOC[C@]1(O)CC[C@]2(CCN(c3ccc(OCC(F)(F)F)nc3)C2=O)CC1 [Example 267, (5α,8α)-8-Hydroxy-8-propoxymethyl-2-[6-(2,2,2-trifluoro-ethoxy)-pyridin-3-yl]-2-aza-spiro[4.5]decan-1-one]",30 nM
13,"CCCOC[C@]1(O)CC[C@]2(CCN(c3ccc(O[C@@H](C)C(F)(F)F)nc3)C2=O)CC1 [Example 268, (5α,8α)-8-Hydroxy-8-propoxymethyl-2-[6-((S)-2,2,2-trifluoro-1-methyl-ethoxy)-pyridin-3-yl]-2-aza-spiro[4.5]decan-1-one]",20 nM
14,"CCCOC[C@]1(O)CC[C@]2(CCN(c3ccc(O[C@@H](C)C(F)(F)F)cc3)C2=O)CC1 [Example 269, (5α,8α)-8-Hydroxy-8-propoxymethyl-2-[4-((S)-2,2,2-trifluoro-1-methyl-ethoxy)-phenyl]-2-aza-spiro[4.5]decan-1-one]",10 nM
